Source: patent US20160030407A1, “Method of Treating Inflammatory Lung Disease” (priority 2010, published 2016)
Converted amounts (≈) assume the structure as drawn. “And” between values parts separate entries of the source, which are not always exact repeats. Identical values can stand only once. “Also recorded” adds a separate entry of the source.

Assays:
NFκB = NFκB luciferase assay (inhibition of TNFα-induced NFκB activity); type: cell-based, Human
Procedure: The smokeless tobacco used in these experiments was plain long-leaf Copenhagen tobacco purchased from a local vendor. Crude extract was extracted with methanol and water and clarified by centrifugation and filtration. The alkaloid extract was prepared from sodium hydroxide and methanol extraction, organic phase separation and purification. All treatment samples were prepared as a function of weight (μg/ml), and all samples were diluted in DMSO.
Human […] kidney cells (HEK293) transfected with an NFκB luciferase reporter were challenged with TNFα for three hours, then samples were applied to the challenged cells.
The effect of S-(−)-anatabine on TNFα-induced NFκB activity in vitro was determined as described in Example 1.

[1] = Single i.v. dose toxicity: body weights and food consumption; type: in vivo, Sprague-Dawley rats; conditions: for Mean food consumption/day: 14 days, 0.1 mg/kg
Procedure: Body weight and food consumption was measured daily for 14 days. On day 15, urine was collected on all surviving animals. The animals were euthanized and bled via cardiac puncture, and blood was collected for analysis. Tissues were collected, weighed, evaluated for gross abnormalities, and stored in 10% neutral-buffered formalin.
All animals were observed daily.

[2] = Single i.v. dose toxicity: hematology; type: in vivo, Sprague-Dawley rats
Excerpt: On day 15, urine was collected on all surviving animals for urinalysis. The animals were euthanized and bled via cardiac puncture. Blood was collected for hematology, clinical chemistry, and coagulation analysis. Tissues were collected, weighed, and stored in 10% neutral-buffered formalin for possible future analysis.

[3] = Anatabine 0.1 mg/kg, F, individual rats
[4] = Anatabine 0.1 mg/kg, M, individual rats
[5] = Anatabine 0.75 mg/kg, F, individual rats
[6] = Anatabine 0.75 mg/kg, M, individual rats
[7] = single i.v. 0.1 mg/kg, male rats
[8] = 0.1 mg/kg, gender F, group mean
[9] = 0.1 mg/kg, gender M, group mean
[10] = 0.75 mg/kg, gender F, group mean
[11] = 0.75 mg/kg, gender M, group mean
[12] = anatabine 0.1 mg/kg, female rats, individual animals
[13] = anatabine 0.1 mg/kg, male rats, individual animals

C1=CCC(c2cccnc2)NC1 (racemic) [Anatabine, 1,2,3,6-tetrahydro-[2,3′]bipyridinyl]
Effect on TNFα-induced NFκB-mediated transcription of luciferase (NFκB; HEK293 with NFκB luciferase reporter challenged with TNFα): reduce this transcription to control levels | IC50 (NFκB; Homo sapiens, 20 ng/ml TNFα, HEK293 NFκB luciferase): ~600 µg/mL (≈ 3.74 mM) | day 7 B.W. [1, 3]: 222.0 g | day 12 B.W. [1, 3]: 240.0 g | day 3 B.W. [1, 4]: 270.0 g | day 4 B.W. [1, 4]: 270.0 g | day 8 B.W. [1, 4]: 310.0 g | day 9 B.W. [1, 4]: 310.0 g | day 12 B.W. [1, 4]: 320.0 g | day 13 B.W. [1, 4]: 360 g | day 2 B.W. [1, 5]: 210.0 g | day 4 B.W. [1, 5]: 230.0 g and 220.0 g | day 8 B.W. [1, 5]: 220.0 g | day 2 B.W. [1, 6]: 240.0 g | day 8 B.W. [1, 6]: 300.0 g | day 13 B.W. [1, 6]: 330 g | Mean weight increase by day 14 ([1]; single i.v. 0.1 mg/kg, female rats): 39.0 g | Mean weight increase by day 14 [1, 7]: 132.5 g | Mean food consumption/day [1, 7]: 31.0 g | Mean food consumption/day ([1]; single i.v. 0.1 mg/kg, male rats, listed as anatabine): statistically higher | Mean weight increase by day 14 ([1]; single i.v. 0.75 mg/kg anatabine, female rats): 43.1 g | Mean weight increase by day 14 ([1]; single i.v. 0.75 mg/kg anatabine, male rats): 111.6 g | BASOPHIL [2, 8]: 0.0% | EOSINOPHIL [2, 8]: 0.0% | MCV [2, 8]: 60.0 fL | MONOCYTE [2, 8]: 1.8% | NEUTROPHIL SEG [2, 8]: 8.0% | PLATELET COUNT [2, 8]: 997300 µL⁻¹ | RBC [2, 8]: 7.8e+06 µL⁻¹ | RETICULOCYTE COUNT [2, 8]: 4.5% | WBC [2, 8]: 9300 µL⁻¹ | BASOPHIL [2, 9]: 0.0% | EOSINOPHIL [2, 9]: 0.2% | MONOCYTE [2, 9]: 2.0% | NEUTROPHIL SEG [2, 9]: 8.6% | PLATELET COUNT [2, 9]: 1.2486e+06 µL⁻¹ | RBC [2, 9]: 7.4e+06 µL⁻¹ | RETICULOCYTE COUNT [2, 9]: 5.5% | WBC [2, 9]: 15600 µL⁻¹ | BASOPHIL [2, 10]: 0.0% | EOSINOPHIL [2, 10]: 0.0% | MONOCYTE [2, 10]: 0.8% | NEUTROPHIL SEG [2, 10]: 8.6% | PLATELET COUNT [2, 10]: 1.2696e+06 µL⁻¹ | RBC [2, 10]: 7.5e+06 µL⁻¹ | RETICULOCYTE COUNT [2, 10]: 3.3% | WBC [2, 10]: 10300 µL⁻¹ | BASOPHIL [2, 11]: 0.0% | EOSINOPHIL [2, 11]: 0.0% | MCHC [2, 11]: 34.0% | MONOCYTE [2, 11]: 1.4% | NEUTROPHIL SEG [2, 11]: 9.8% | PLATELET COUNT [2, 11]: 1.3258e+06 µL⁻¹ | RBC [2, 11]: 7.5e+06 µL⁻¹ | RETICULOCYTE COUNT [2, 11]: 4.4% | WBC [2, 11]: 12100 µL⁻¹ | ANISOCYTOSIS [2, 12]: SLIGHT | BASOPHIL [2, 12]: 0% | EOSINOPHIL [2, 12]: 0% | HCT [2, 12]: 44% | HGB [2, 12]: 17 gm/dL | LYMPHOCYTE [2, 12]: 89% and 90% and 91% and 93% and 88% | MCHC [2, 12]: 34% | MONOCYTE [2, 12]: 3% and 2% (2×) and 1% (2×) | NEUTROPHILSEG [2, 12]: 8% (2×) and 7% and 6% and 11% | PLATELETEST [2, 12]: ADEQUATE; also recorded: DECREASED | POLYCHROMASIA [2, 12]: SLIGHT | RETICULOCYTE COUNT [2, 12]: 4.8% and 5.4% and 6.1% and 3.7% and 2.4% | ANISOCYTOSIS [2, 13]: SLIGHT | BASOPHIL [2, 13]: 0% | EOSINOPHIL [2, 13]: 0% (4×) and 1% | HCT [2, 13]: 45% | LYMPHOCYTE [2, 13]: 87% (2×) and 94% and 90% and 88% | MCHC [2, 13]: 34% (2×) and 32% | MONOCYTE [2, 13]: 1% (2×) and 3% (2×) and 2% | NEUTROPHILSEG [2, 13]: 12% and 3% and 7% and 10% and 11% | PLATELETEST [2, 13]: ADEQUATE; also recorded: INCREASED | POLYCHROMASIA [2, 13]: SLIGHT
